Measured values from patent US6403054B1, “Ternary ligand complexes useful as radiopharmaceuticals” (Bristol-Myers Squibb Pharma Company, priority 1997, dated 2002).

Assay: Canine imaging and biodistribution model
Conditions: for route of excretion: i.v. infusion, gamma camera images and biodistribution
Procedure: A canine imaging and biodistribution model was used to evaluate the radiopharmaceuticals of Examples 5 and 7.
Adult beagle dogs of either sex (9-13 kg) were anesthetized with pentobarbital sodium (35 mg/kg,i.v.) and ventilated with room air via an endotracheal tube (12 strokes/min, 25 ml/kg). For arterial pressure determination, the right femoral artery was cannulated with a saline-filled polyethylene catheter (PE-240) and connected to a Statham pressure transducer (P23ID; Oxnard, Calif.). Mean arterial blood pressure was determined via damping the pulsatile pressure signal. Heart rate was monitored using a cardiotachometer (Biotach, Grass Quincy, Mass.) triggered from a lead II electrocardiogram generated by limb leads. All parameters were monitored continuously on a polygraph recorder (model 7D Grass) at a paper speed of 10 mm/min or 25 mm/sec. The right femoral vein was cannulated (PE-240) for drug administration. A control blood sample was collected for hematology analysis on an MCA210 (APTT, PT), K1000 (cell number), and Chrono Log Aggregometer (collagen induced platelet aggregation). Blood samples were also collected immediately after infusion, 30, 60, and 120 minutes post infusion. Samples of blood were retained for blood clearance determination at control, immediately following infusion, 15, 30, 60, 90, and 120 minutes post infusion. Administration of test article was given no earlier than 20 minutes post surgery. The test article was administered as a 10 cc slow infusion over 5 minutes. Images were acquired by a gamma camera over 5 minutes and taken during infusion, 5, 15, 30, 60, 90, 120 minutes post infusion (Digital Dyna Camera, Picker International, Cleveland, Ohio). At the end of the protocol the animal was euthanized with an overdose of pentobarbital and a biodistribution performed. The samples collected for biodistribution (muscle, liver, kidney, bile, spleen, heart, lung thyroid, and urine) and the blood clearance samples were weighed and the amount of activity determined via a gamma well counter (LKB 1282, Wallac Inc).

[1] = at 120 min post-injection, beagle dogs

Substance | route of excretion (anesthetized adult beagle dogs) | clearance from the blood (anesthetized adult beagle dogs, slow i.v. infusion over 5 minutes, blood samples up to 120 minutes post infusion) | portion of the radiopharmaceutical located in the bladder [1] | radiopharmaceutical remaining in the blood, the muscle or other organs [1] | clearance from the blood (dog, in vivo, iv)
[^99mTc (HYNICamide) (tricine) (TPPTS)] [Example 7] | predominantly renal | rapid clearance | vast majority | very little remaining | –
[^99mTc (HYPY) (tricine) (TFP)] [Example 5] | predominantly hepatobiliary | – | – | – | Rapid blood clearance
